The test system of one test is P. falciparum ABS. The settings on record: read-out: EC50 P. falciparum ABS growth inhibition; cited from earlier work.
In a further test the test system is recombinant human PDE9. On the set-up: method as in PMID 25555060, PMID 21766240. The conditions noted are these: cited from earlier work.
The next test has as its target T1, PDEβ (Plasmodium falciparum, UniProt Q8I6Z7).
T1 construct: endogenous in cells; host or cells: P. falciparum 3D7 schizonts, NP-40 membrane lysate
In words: cAMP hydrolysis SPA in schizont membrane lysates. In kind it is biochemical. The conditions noted are these: read-out: IC50 against PDEβ. The source says:
We identified three PDE inhibitor chemical series generated by Pfizer, with structures in the public domain, which have activity against malaria parasites (see the “Chemistry strategy summary” section). These series were originally designed to inhibit human PDEs and were chosen as chemistry start points to optimize activity against malaria parasites. More than 400 new analogs were generated (full details of their properties will be reported in a separate paper, in preparation) through iterative rounds of synthesis and testing. The chemistry start points for each of the series were SAL-0010042 (5-benzyl), SAL-0010043 (5-aryl), and SAL-0010034 (2-alkyl) (see Materials and Methods and fig. S1A). S2. Analytical data for these compounds are provided in data S1. All newly synthesized compounds were tested for inhibition of native cAMP-PDE activity in mature schizont crude membrane preparations and inhibition of P. falciparum ABS growth. S3A. […] The unbound EC50 values for the compounds in the parasite growth inhibition assay were consistently calculated to be sevenfold higher than the IC50 values in the biochemical assay. Given that PDEβ is dual specific (i.e., can hydrolyze both cAMP and cGMP), we also determined IC50 values for cGMP hydrolysis. […] The IC50 values measured for cGMP hydrolysis in blood-stage schizonts were generally similar to those for cAMP hydrolysis (Table 1). […]
The cyclic nucleotide hydrolytic activity of membrane-associated parasite PDE enzymes was measured by a scintillation proximity assay (SPA) ([18]) using lysates of mature P. falciparum schizonts or stage IV/V gametocytes. […] The IC50 values for the compounds were determined using threefold serial dilutions in duplicate. […] The reactions were terminated by addition of 25 μl of PDE SPA beads (PerkinElmer, RPNQ0150), and after 20 min of incubation at room temperature, scintillation was measured using a Wallac 1450 Microbeta Counter (PerkinElmer) for 30 s. […]

The test system of test [1] is P. falciparum clinical isolates from Porto Velho, Brazil. In words: Ex vivo schizont maturation assay, Brazilian clinical isolates. It is filed as cell-based, Plasmodium falciparum. The conditions noted are these: eight Brazilian isolates; read-out: Median EC50, clinical isolates. Here is the method: (§1) Only monoinfected patients with P. falciparum with parasitemia between 2000 and 80,000 parasites/μl and with at least 70% of ring-stage parasites were recruited. Patients who had used an antimalarial in the previous month and/or presented with symptoms of severe malaria were excluded from the study. The study cohort comprised 24 patients living in this highly endemic area. A peripheral venous blood sample (5 ml) was collected from each individual by venipuncture in heparin-containing tubes and immediately used in the ex vivo drug susceptibility assay using preprepared plates containing diluted antimalarial compounds. […] Last, 20 μl of each dilution was transferred into the ex vivo assay plate and diluted 10-fold into the final assay medium containing parasites. For the infected blood preparation, 5 ml of whole blood was centrifuged at 800g for 10 min, and the plasma and buffy coat were removed. […] Control assays on a 3D7 laboratory isolate were performed with medium supplemented with human serum (20%). The iRBC (180 μl per well) were distributed in the predosed drug plate. […] Control wells containing drug-free iRBCs were cultured with complete medium. The parasite-drug incubation was terminated when 40% of the ring stages reached the schizont stage (at least three distinct nuclei per parasite) in the drug-free control wells. Thick blood films were then made from each well, dried, stained with 5% Giemsa solution for 30 min, and examined microscopically. The number of schizonts per 200 asexual-stage parasites was determined for each drug concentration and then normalized by comparing with the schizont number in the drug-free control wells [considered as 100% ([64])]. The half-maximal drug inhibitory response (EC50) was estimated by curve fitting using software from the OriginLab Corporation, Northampton, MA, USA and comparing with parasite growth in the drug-free controls.

Test [2] deals with P. falciparum stage V gametocytes (female gamete formation). In words: Female gamete formation inhibition assay. In kind it is cell-based, Plasmodium falciparum. The conditions noted are these: 2 μM, 48 hours. Here is the method:
Mature gametocytes (>95% stage V) were treated with compounds (2 μM) for 48 hours before stimulating female gamete formation. To evaluate compound dose response, gametocytes were treated similarly at set concentrations representing a fourfold serial dilution. Female gamete activation was induced by both a temperature drop and the addition of 100 μM XA. Monoclonal anti-Pfs25 antibody (BEI Resources, catalog number MRA-28; 1:1000 dilution) conjugated to fluorescein isothiocyanate was used to detect female gametes. Image acquisition was performed using a Zeiss Axio Lab.A1 epifluorescence microscope with a 100/1.4 numerical aperture oil immersion objective and a Zeiss Axiocam 202 mono digital camera. Using a 100× objective, 30 images were taken per sample and analyzed manually. The number, size, roundness, and intensity of fluorescence of activated female gametocytes were evaluated. Compound IC50 values were determined with nonlinear curve fitting (GraphPad Prism 6), normalized to maximum and minimum inhibition.

The test system of another test is P. falciparum Dd2. In words: P. falciparum Dd2 LDH growth inhibition assay (asexual blood stage). It is filed as cell-based, Plasmodium falciparum. The conditions noted are these: multidrug-resistant Dd2; geometric mean ×/÷ geometric SD. As for the experimental part: (§2) P. falciparum isolates (3D7/Dd2) were obtained from BEI Resources and were cultured using standard procedures as described elsewhere ([47]). Briefly, P. falciparum was grown in RPMI 1640 medium (10.3 g/liter) supplemented with L-glutamine (2 mM), hypoxanthine (150 μM), Hepes (25 mM), D-glucose (12 mM), sodium bicarbonate (25.7 mM), AlbuMAX II (0.5% or 5 g/liter) (pH 7.4), and 2% RBC (type O+, freshly prepared). Cultures were replenished with fresh medium and RBCs every other day. For RBC preparation, whole blood was centrifuged at 415g at room temperature for 12 min. After that, the plasma and buffy coat were removed, and packed RBCs were washed three times with 3 vol of RPMI 1640. Last, RBCs were resuspended in 1:1 vol of complete RPMI 1640 medium (containing 0.5% AlbuMAX II).
(§3) The P. falciparum 3D7 and Dd2 LDH growth inhibition assay was carried out as described elsewhere ([48]) with minor modification of the parasitological conditions (10 to 15% parasitemia with ≥80% rings). Data were normalized to percent growth inhibition with respect to […] (for 3D7, a mixture of 100 nM chloroquine and 100 nM atovaquone as 100% inhibition; for Dd2, a mixture of 200 nM DHA and 200 nM atovaquone as 100% inhibition) controls.

The test system of test [3] is P. falciparum stage IV/V gametocytes. In words: LDH-based gametocyte viability assay. It is filed as cell-based, Plasmodium falciparum. The settings on record: stage IV to V gametocytes. As for the experimental part: The pLDH assay was performed on late (>95% stage IV/V) gametocytes. Compound dilutions were placed in triplicate in 96-well plates in a final volume of 100 μl per well. DHA and MMV048 were used as positive drug controls. The gametocyte cultures (100 μl per well) were added to the 96-well plates to achieve a final gametocytemia and hematocrit of 2 and 1%, respectively, in a total incubation volume of 200 μl. Plates were incubated at 37°C for 72 hours, followed by the replacement of spent medium with drug-free culture medium (75% medium change) ([54], [55]). Plates were then incubated for a further 72 hours before assessing viability by measuring pLDH activity. Gametocyte viability was determined spectrophotometrically by measuring the activity of pLDH, according to a modified version of a published protocol ([56]). Briefly, 100 μl of Malstat reagent [0.21% (v/v) Triton X-100, 222 mM L-(+)-lactic acid, 54.5 mM tris, 0.166 mM APAD (Sigma-Aldrich, A5251), adjusted to pH 9 with 1 M NaOH] was transferred into a clean 96-well plate. A fixed volume of 20 μl of parasite suspension per well was added to the Malstat plate, followed by the addition of 25 μl of PES/NBT (0.239 mM phenazine ethosulfate and 1.96 mM nitro blue tetrazolium chloride). Absorbance was measured with a Multiskan Ascent 354 multiplate scanner (Thermo LabSystems, Finland) at 620 nm.

Test [4] deals with P. falciparum 3D7. In words: Ex vivo schizont maturation assay, 3D7 control (Brazil). The settings on record: tested in parallel with Brazilian isolates, 20% human serum. In kind it is cell-based, Plasmodium falciparum. Here is the method:
as §1, with “The parasite-drug incubation was terminated when 40% of the ring stages reached the schizont stage (at least three distinct nuclei per parasite) in the drug-free control wells. Thick blood films were then made from each well, dried, stained with 5% Giemsa solution for 30 min, and examined microscopically.” left out, “The half-maximal drug inhibitory response (EC50) was estimated by curve fitting using software from the OriginLab Corporation, Northampton, MA, USA and comparing with parasite growth in the drug-free controls.” left out

For test [5], the system named is P. falciparum stage V gametocytes (male gamete formation). In words: Exflagellation (male gamete formation) inhibition assay. The conditions noted are these: 2 μM, 48 hours. It is filed as cell-based, Plasmodium falciparum. As for the experimental part:
The exflagellation inhibition assay was performed by capturing movement of exflagellation centers over time by video microscopy [adapted from a reported protocol ([52])]. For this carry-over format, mature stage V gametocytes were treated with 2 μM of each compound for 48 hours before induction of exflagellation in the presence of compound. To evaluate compound dose response, gametocytes were treated similarly at a set of concentrations representing a fourfold serial dilution. Mature gametocyte cultures (>95% stage V; 500 μl) were centrifuged at 3500 rpm for 30 s, and the pellet was resuspended in 30 μl of ookinete medium [RPMI 1640 medium containing L-glutamine (Sigma-Aldrich, R6504), gentamycin (0.024 mg/ml; HyClone, SV30080.01), 202 μM hypoxanthine (Sigma-Aldrich, H9636), 25 mM Hepes (Sigma-Aldrich, H4034), 0.2% glucose (Sigma-Aldrich, G6152), and 0.5% (w/v) AlbuMAX II (Invitrogen, Paisley, UK), supplemented with 100 μM XA and 20% human serum]. The activated culture (10 μl) was introduced into a Neubauer chamber and placed on the microscope platform to settle homogenously. Time was noted as time zero (T0), and the chamber was incubated at room temperature. Movement was recorded by video microscopy using a Carl Zeiss NT 6V/10W Stab microscope, fitted with a MicroCapture camera at 10× magnification, and then quantified by a semiautomated method, a modification of the method described previously ([53]). A series of 15 videos of 8 to 10 s each were captured at random locations between 15 and 22.5 min after incubation. Each video was analyzed using Icy bioimage analysis software to quantify the number of exflagellating centers. Compound IC50 values were determined with nonlinear curve fitting (GraphPad Prism 6), normalized to maximum and minimum inhibition.

The test system of a further test is PDE6. On the set-up: method as in PMID 29743944. The settings on record: cited from earlier work.
The test system of the next test is malaria parasites. On the set-up: method as in PMID 25951195, PMID 33262483. The settings on record: cited from earlier work.
Test [6] concerns P. falciparum 3D7. In words: P. falciparum 3D7 LDH growth inhibition assay (asexual blood stage). It is filed as cell-based, Plasmodium falciparum. The settings on record: Plasmodium falciparum, 3D7, read-out: EC50 against ABS parasites. Here is the method:
as §2, §3

Each structure is given as a SMILES string.

Data on three compounds can be found in publication PMC11623267, “Inhibitors of malaria parasite cyclic nucleotide phosphodiesterases block asexual blood-stage development and mosquito transmission” (Science Advances, 2024).

T1 sequence (Q8I6Z7 whole entry): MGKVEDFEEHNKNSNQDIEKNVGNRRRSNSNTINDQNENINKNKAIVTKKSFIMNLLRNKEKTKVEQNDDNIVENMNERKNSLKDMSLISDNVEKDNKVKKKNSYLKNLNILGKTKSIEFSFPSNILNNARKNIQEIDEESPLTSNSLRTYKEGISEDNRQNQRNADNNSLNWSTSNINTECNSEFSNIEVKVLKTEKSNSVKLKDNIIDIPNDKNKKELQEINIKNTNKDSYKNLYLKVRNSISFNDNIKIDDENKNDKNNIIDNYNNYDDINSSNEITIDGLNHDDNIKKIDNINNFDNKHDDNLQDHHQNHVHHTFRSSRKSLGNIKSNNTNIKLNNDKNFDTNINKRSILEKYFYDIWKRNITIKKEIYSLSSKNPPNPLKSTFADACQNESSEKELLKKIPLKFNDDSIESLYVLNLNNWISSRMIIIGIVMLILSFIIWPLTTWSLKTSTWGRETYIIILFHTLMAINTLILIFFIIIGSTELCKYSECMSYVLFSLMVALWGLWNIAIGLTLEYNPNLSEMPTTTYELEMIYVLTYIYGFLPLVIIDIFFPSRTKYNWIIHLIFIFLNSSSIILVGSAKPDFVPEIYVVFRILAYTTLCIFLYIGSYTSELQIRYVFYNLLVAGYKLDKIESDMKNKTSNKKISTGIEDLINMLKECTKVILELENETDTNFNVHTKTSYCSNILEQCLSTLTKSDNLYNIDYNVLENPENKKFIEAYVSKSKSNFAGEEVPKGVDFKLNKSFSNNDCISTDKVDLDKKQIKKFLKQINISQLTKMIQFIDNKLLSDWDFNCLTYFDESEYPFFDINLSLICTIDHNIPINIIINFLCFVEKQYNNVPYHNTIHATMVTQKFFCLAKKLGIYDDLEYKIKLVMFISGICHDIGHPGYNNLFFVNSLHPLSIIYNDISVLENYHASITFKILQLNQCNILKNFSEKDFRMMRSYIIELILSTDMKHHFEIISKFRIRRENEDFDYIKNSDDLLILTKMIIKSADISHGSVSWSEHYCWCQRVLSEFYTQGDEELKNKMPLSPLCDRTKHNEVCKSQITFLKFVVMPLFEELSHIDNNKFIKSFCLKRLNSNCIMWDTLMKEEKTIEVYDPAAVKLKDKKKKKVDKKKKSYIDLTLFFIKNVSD

In the case of `CC(C)c1n[nH]c2c(=O)[nH]c(Cc3ccccc3)nc12` [BIPPO, 5-benzyl-3-isopropyl-1H-pyrazolo[4,3-d]pyrimidin-7(6H)-one], in the test with P. falciparum ABS, the EC50 is 400 nM. Moreover, in the test with recombinant human PDE9, the “Potency against recombinant human PDE9” value is on record as 30 nM. Also, the IC50 at PDEβ was found to be 9 nM.
Regarding `CCc1c2nc(-c3cc(C(=O)NC(C)C)cnc3OCC(C)C)[nH]c(=O)c2nn1CCOC` [SAL-0010255], the figures for the EC50 (in [1]; with P. falciparum Dd2; in the test with P. falciparum 3D7 [4]) were 157 nM, 126 nM and 89 nM, respectively. Moreover, the “% inhibition of female gamete formation at 2 μM” value in [2] was 66.7 ± 1.8%. In addition, the “% inhibition gametocyte viability at 15 μM” value in test [3] is listed as 40.4 ± 3.1%. The “% inhibition of exflagellation at 2 μM” value in test [5] was 48.8 ± 25.3%.
Take `CCCc1nn(C)c2c(=O)[nH]c(-c3cc(S(=O)(=O)N4CCN(C)CC4)ccc3OCC)nc12` [sildenafil]: the “Selectivity (PDE5 over PDE6)” value in the test on PDE6 was below 10 fold. In addition, the “IC50 against malaria parasites” value in the test on malaria parasites was “mid-to-high micromolar range”. In addition, the IC50 at PDEβ is above 10000 nM. In the test with P. falciparum 3D7 [6], the EC50 is above 25000 nM.

The term EC50 denotes the concentration needed to bring the measured effect to its halfway point. By IC50 is commonly meant the concentration that inhibits the measured activity by half.
